# Reference: patent US20210047324A1 (Aptinyx Inc., priority 2018, published 2021)
# Tests used:
# NMDAR2D [1] = target: T1, NMDAR2D (Homo sapiens, UniProt O15399); experiment: NMDAR agonist assay, [3H]MK-801 binding, NMDAR2D expressing HEK cell membranes; type: biochemical; settings: 50 μM glutamate; relative to 1 mM glycine
# T1 construct: expressed in transfected cells; host or cells: HEK cells (membrane extract)
# Experimental: (§1) Assays were conducted as described by Moskal et al., “GLYX-13: a monoclonal antibody-derived peptide that acts as an N-methyl-D-aspartate receptor modulator,” Neuropharmacology, 49, 1077-87, 2005. These studies were designed to determine if the test compounds act to facilitate NMDAR activation in NMDAR2A, NMDAR2B, NMDAR2C or NMDAR2D expressing HEK cell membranes as measured by increases in [^3H]MK-801 binding.
# (§2) In the assay, 300 μg of NMDAR expressing HEK cell membrane extract protein was preincubated for 15 minutes at […] in the presence of saturating concentrations of glutamate (50 μM) and varying concentrations of test compound (1×10^−15M-1×10^−7M), or 1 mM glycine. Following the addition of 0.3 μCi of [3H]MK-801 (22.5 Ci/mmol), reactions were again incubated for 15 minutes at 25° C. (nonequilibrium conditions). Bound and free [3H]MK-801 were separated via rapid filtration using a Brandel apparatus.
# (§3) In analyzing the data, the DPM (disintegrations per minute) of [3H]MK-801 remaining on the filter were measured for each concentration of test compound or for 1 mM glycine. The DPM values for each concentration of a ligand (N=2) were averaged. The baseline value was determined from the best fit curve of the DPM values modeled using the GraphPad program and the log(agonist) vs. response (three parameters) algorithm was then subtracted from all points in the dataset. The % maximal [^3H]MK-801 binding was then calculated relative to that of 1 mM glycine: all baseline subtracted DPM values were divided by the average value for 1 mM glycine. The EC50 and % maximal activity were then obtained from the best fit curve of the % maximal [3H]MK-801 binding data modelled using the GraphPad program and the log(agonist) vs. response (three parameters) algorithm.
# (§4) The tables below summarize the results for the wild type […] NMDAR2A, NMDAR2B, NMDAR2C, and NMDAR2D, and whether the compound is not an agonist (−), is an agonist (+), or is a strong agonist (++), where column A is based on the % maximal [3H]MK-801 binding relative to 1 mM glycine (−=0; <100%=+; and >100%=++); and column B is based on log EC50 values (0=−; ≥1×10^−9 M (e.g., −8)=+; and <1×10^−9 M (e.g., −10)=++).
# NMDAR2D [2] = target: T2, NMDAR2D (Homo sapiens, UniProt O15399+Q05586); experiment: as above; type: biochemical; settings: 50 μM glutamate; read-out: NMDAR2D B: log EC50 (converted)
# T2 construct: expressed in transfected cells; host or cells: HEK cells (membrane extract)
# Experimental: as §1, §2, §3, §4
# NMDAR2A = target: T3, NMDAR2A (Homo sapiens, UniProt Q12879); experiment: NMDAR agonist assay, [3H]MK-801 binding, NMDAR2A expressing HEK cell membranes; type: biochemical; settings: 50 μM glutamate
# T3 construct: expressed in transfected cells; host or cells: HEK cells (membrane extract)
# How it was run: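 Membranes from HEK cells (300 μg protein) preincubated 15 min with 50 μM glutamate plus compound (1×10^−15–1×10^−7 M) or 1 mM glycine, then with 0.3 μCi [3H]MK-801 for 15 min at 25° C. (nonequilibrium); filter-bound DPM, baseline-subtracted, expressed as % of 1 mM glycine; EC50 and % maximum from three-parameter fit.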
# Plasma stability (Human) = type: in vitro ADME; settings: after 60 minutes
# Experimental: (§5) Plasma stability of disclosed compounds was investigated. The following table indicates the percent of compound remaining after 60 minutes.
# Plasma stability (Rat) = type: in vitro ADME; settings: after 60 minutes
# Experimental: as §5
# T3 sequence (Q12879 23-1464, species assumed, other chains not shown): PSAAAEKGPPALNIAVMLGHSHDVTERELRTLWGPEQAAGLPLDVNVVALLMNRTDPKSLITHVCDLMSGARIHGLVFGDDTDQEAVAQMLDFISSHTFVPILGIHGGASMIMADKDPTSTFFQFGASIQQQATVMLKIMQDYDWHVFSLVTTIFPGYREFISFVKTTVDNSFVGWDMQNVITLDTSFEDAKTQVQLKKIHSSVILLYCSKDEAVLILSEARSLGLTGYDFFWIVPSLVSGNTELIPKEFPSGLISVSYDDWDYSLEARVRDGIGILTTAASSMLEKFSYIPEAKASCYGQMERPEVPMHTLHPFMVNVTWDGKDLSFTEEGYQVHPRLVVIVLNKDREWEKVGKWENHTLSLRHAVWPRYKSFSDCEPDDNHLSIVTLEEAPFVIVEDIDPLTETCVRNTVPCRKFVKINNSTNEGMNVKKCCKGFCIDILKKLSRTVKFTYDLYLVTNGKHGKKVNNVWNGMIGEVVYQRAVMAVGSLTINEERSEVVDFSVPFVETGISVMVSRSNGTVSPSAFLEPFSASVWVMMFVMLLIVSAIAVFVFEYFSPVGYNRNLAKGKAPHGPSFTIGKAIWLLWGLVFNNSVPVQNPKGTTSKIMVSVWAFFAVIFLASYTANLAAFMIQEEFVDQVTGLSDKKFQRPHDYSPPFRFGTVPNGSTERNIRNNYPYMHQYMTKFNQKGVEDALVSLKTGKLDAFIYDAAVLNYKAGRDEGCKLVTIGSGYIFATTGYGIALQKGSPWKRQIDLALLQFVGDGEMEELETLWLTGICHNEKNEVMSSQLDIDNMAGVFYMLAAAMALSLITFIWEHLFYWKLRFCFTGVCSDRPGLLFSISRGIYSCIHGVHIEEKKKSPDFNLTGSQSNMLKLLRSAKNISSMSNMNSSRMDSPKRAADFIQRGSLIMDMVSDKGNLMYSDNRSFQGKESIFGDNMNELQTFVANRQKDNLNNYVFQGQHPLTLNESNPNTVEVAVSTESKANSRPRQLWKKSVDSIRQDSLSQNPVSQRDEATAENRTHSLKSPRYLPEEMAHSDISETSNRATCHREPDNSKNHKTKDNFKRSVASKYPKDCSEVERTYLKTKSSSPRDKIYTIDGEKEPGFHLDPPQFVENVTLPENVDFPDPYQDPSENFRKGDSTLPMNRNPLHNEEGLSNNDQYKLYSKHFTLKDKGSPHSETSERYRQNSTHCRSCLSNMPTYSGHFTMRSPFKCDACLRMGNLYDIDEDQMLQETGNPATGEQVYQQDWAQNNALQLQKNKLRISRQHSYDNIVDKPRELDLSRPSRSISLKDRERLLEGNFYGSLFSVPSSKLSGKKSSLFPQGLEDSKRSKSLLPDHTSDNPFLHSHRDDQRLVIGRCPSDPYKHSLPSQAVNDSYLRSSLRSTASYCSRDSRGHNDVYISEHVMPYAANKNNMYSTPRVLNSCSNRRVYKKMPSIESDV
# T2 sequence (O15399 28-1336, species assumed, other chains not shown): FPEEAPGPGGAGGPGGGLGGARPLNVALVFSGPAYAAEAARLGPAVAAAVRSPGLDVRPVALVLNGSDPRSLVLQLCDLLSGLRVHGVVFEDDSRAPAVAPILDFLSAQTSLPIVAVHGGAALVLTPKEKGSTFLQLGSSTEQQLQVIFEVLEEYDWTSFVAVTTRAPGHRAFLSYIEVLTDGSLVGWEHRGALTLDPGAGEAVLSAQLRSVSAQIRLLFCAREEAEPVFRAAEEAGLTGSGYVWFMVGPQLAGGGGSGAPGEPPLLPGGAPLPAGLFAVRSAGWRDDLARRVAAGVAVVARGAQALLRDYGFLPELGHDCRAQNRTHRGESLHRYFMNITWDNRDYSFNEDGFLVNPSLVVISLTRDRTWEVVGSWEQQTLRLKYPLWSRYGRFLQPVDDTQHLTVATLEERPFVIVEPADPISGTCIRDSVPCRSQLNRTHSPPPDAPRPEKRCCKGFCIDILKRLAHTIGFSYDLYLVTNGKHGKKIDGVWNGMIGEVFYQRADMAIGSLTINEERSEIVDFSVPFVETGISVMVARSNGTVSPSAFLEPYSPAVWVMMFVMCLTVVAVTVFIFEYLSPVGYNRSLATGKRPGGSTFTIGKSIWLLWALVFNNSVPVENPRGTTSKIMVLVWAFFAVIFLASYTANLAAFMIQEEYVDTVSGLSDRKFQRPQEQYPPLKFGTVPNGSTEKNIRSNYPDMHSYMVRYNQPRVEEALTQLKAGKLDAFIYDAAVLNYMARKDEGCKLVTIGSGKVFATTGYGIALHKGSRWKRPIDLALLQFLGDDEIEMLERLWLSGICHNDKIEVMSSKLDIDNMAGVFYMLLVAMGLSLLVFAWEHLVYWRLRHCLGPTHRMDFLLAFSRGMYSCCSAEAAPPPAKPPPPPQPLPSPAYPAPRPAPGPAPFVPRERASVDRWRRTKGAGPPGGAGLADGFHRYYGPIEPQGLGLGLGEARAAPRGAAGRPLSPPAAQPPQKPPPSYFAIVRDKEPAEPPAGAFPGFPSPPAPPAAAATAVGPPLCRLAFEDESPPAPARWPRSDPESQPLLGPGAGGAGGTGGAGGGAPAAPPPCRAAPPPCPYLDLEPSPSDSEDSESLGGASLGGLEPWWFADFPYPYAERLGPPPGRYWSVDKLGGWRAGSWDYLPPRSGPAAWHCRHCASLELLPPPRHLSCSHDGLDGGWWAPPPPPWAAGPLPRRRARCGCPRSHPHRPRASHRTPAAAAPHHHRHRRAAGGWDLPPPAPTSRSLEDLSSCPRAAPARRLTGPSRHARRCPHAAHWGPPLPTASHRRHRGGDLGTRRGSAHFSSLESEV
# T1 sequence (O15399 28-1336, species assumed, other chains not shown): as above
smiles,measurement,setting,value
"O=C1NCC=CC[C@]12CCCN2 [GA, (R)-1,7-diazaspiro[4.6]undec-9-en-6-one]",NMDAR2D A: % maximal [3H]MK-801 binding relative to 1 mM glycine,NMDAR2D [1],+ (<100%=+)
same,EC50,NMDAR2D [2],< 1 nM
same,EC50,NMDAR2A; read-out: NMDAR2A B: log EC50 (converted),≥ 1 nM
same,Emax,"NMDAR2A; 0.25 h, relative to 1 mM glycine, read-out: NMDAR2A A: % maximal [3H]MK-801 binding relative to 1 mM glycine",< 100%
same,Plasma (Human): percent of compound remaining,Plasma stability (Human),95%
same,Plasma (Rat): percent of compound remaining,Plasma stability (Rat),100%
